What follows are compounds tested against T1, PGF synthase (Homo sapiens, UniProt P42330) (assay: Test on PGF synthase (spectrophotometric, 340 nm, maximum reaction rate)). Settings: IC50fs; 37° C., pH 6.5; read-out: Inhibition of PGFS IC50.
T1 construct: made in house
T1 sequence (P42330 1-323): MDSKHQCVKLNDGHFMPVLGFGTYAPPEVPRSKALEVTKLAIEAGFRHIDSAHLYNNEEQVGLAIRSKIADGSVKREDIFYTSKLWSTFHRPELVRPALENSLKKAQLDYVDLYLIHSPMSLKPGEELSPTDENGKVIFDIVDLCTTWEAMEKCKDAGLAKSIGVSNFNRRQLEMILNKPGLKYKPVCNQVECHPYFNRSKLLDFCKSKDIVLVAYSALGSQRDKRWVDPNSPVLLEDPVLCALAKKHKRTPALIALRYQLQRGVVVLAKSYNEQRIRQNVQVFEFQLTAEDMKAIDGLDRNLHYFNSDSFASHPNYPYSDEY
Assay type: biochemical
Method: (§1) For the purposes of the test, this suspension is thawed and stored in ice.
(§2) 0.950 mL of this buffer (brought to 37° C. beforehand) is introduced into the cuvette of a spectrophotometer (Perkin-Elmer, Lambda 2) thermostatically maintained at 37° C., the measuring wavelength of which is set at 340 nm. 0.05 mL of enzymatic suspension at 37° C. is introduced into the cuvette concomitantly with the recording (corresponding to a reduction in the optical density at 340 nm). The maximum reaction rate is recorded.

| IC50 | Structure (SMILES) |
| --- | --- |
| > 50 µM | O=C(COc1cccc(Cl)c1)NCc1ccco1 [Compound 23] |

Same assay, conditions: compound at 50 μM; read-out: Inhibition of PGFS % inhibition at 50 μM

| inhibition at 50 µM | Structure (SMILES) |
| --- | --- |
| 4% | O=C(COc1ccccc1)NCc1ccccc1 [Compound 24] |
| 25% | O=C(COc1cccc(Cl)c1)NCc1ccco1 [Compound 23] |
| 24% | O=C(COC1CCCCC1)NCc1ccccc1 [Compound 21] |

These compounds were tested against T2, type-1 15-PGDH (Homo sapiens, UniProt P15428) (assay: Test on type-1 15-PGDH (spectrophotometric, 340 nm, maximum reaction rate)). Settings: IC50dh; 37° C., pH 7.4; read-out: Inhibition of 15-PGDH IC50.
T2 construct: made in house
T2 sequence (P15428 1-266): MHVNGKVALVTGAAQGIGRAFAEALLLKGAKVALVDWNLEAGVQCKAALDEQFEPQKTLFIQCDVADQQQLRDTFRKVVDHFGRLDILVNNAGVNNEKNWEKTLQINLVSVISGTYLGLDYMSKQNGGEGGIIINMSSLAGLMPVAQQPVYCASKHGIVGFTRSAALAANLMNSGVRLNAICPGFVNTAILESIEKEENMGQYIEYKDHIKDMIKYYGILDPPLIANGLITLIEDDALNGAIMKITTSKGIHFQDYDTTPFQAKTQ
Assay type: biochemical
Method: 1) Test on type-1 15-PGDH:
as §1
as §2, with “0.965 ml” for “0.950 mL”, “0.035 ml” for “0.05 mL”, “an increase” for “a reduction”

| IC50 | Structure (SMILES) |
| --- | --- |
| 16 µM | O=C(COc1cccc(Cl)c1)NCc1ccco1 [Compound 23] |

Same assay, conditions: compound at 50 μM

| inhibition at 50 µM | Structure (SMILES) |
| --- | --- |
| 55% | O=C(COc1ccccc1)NCc1ccccc1 [Compound 24] |
| 30% | O=C(COc1ccc(Cl)cc1)NCc1ccccc1 [Compound 26] |
| 80% | O=C(COc1cccc(Cl)c1)NCc1ccco1 [Compound 23] |
| 47% | CCCCCCOCC(=O)NCc1ccccc1 [Compound 22] |
| 63% | O=C(COC1CCCCC1)NCc1ccccc1 [Compound 21] |
| 50% | O=C(COc1cccc(Cl)c1)NCc1ccccc1 [Compound 25] |

Same assay, conditions: compound at 100 μM; 37° C., pH 7.4, PGE2 50 μM, β-NAD 1.5 mM

| Structure (SMILES) | inhibition at 100 µM |
| --- | --- |
| Cc1ccc(CNC(=O)COCc2ccccc2)o1 [Compound 15, 2-Benzyloxy-N-(5-methyl-furan-2-ylmethyl)-acetamide] | 51% |
| CC(C)(C)c1ccc(OCC(=O)NC[Si](C)(C)C)cc1 [Compound 17, 2-(4-tert-Butyl-phenoxy)-N-trimethylsilanylmethyl-acetamide] | 50% |
| O=C(COc1ccccc1)NCc1ccccc1 [Compound 33] | 61% |
| CCCCCCc1ccc(NC(=O)COc2ccc3sc(C)nc3c2)cc1 [Compound 9, N-(4-Hexyl-phenyl)-2-(2-methyl-benzothiazol-5-yloxy) acetamide] | 69% |
| C[Si](C)(C)CNC(=O)COc1ccccc1 [Compound 19, 2-Phenoxy-N-trimethylsilanylmethyl-acetamide] | 95% |
| CCOC(=O)c1ccc(NC(=O)COc2ccc(C(C)=O)cc2)cc1 [Compound 4, 4-[2-(4-Acetylphenoxy)acetylamino]benzoic acid ethyl] | 49% |
| CSCCNC(=O)COc1ccccc1 [Compound 20] | 85% |
| CCCCCCNC(=O)COc1ccccc1 [Compound 31] | 57% |
| N#Cc1ccc(-c2ccc(OCC(=O)Nc3cccc([N+](=O)[O-])c3)cc2)cc1 [Compound 28] | 54% |
| C[Si](C)(C)CNC(=O)COCc1ccccc1 [Compound 18, 2-Benzyloxy-N-trimethylsilanylmethyl-acetamide] | 88% |
| O=C(COCc1ccccc1)NC1CCCC1 [Compound 16, 2-Benzyloxy-N-cyclopentylacetamide] | 76% |
| Cc1nc2cc(OCC(=O)Nc3ccc(OC(F)(F)F)cc3)ccc2s1 [Compound 5, 2-(2-Methyl-benzothiazol-5-yloxy)-N-(4-trifluoromethoxy-phenyl) acetamide] | 53% |
| O=C(COCc1ccccc1)NCc1ccccc1 [Compound 27] | 48% |
| O=C(COc1ccccc1)NC[C@@H]1CCCO1 [Compound 29] | 54% |
| O=C(COCc1ccccc1)NC[C@@H]1CCCO1 (stereo in doubt) [Compound 14, 2-benzyloxy-N-(tetrahydrofuran-2-ylmethyl)acetamide] | 50% |
| Cc1cccc(C)c1NC(=O)COc1cccc2cccnc12 [Compound 1, N-(2,6-dimethylphenyl)-2-(quinolin-8-yloxy)acetamide] | 49% |
| O=C(COc1cccc2cccnc12)Nc1ccccc1Cl [Compound 2] | 115% |
| O=C(COc1cccc2cccnc12)Nc1cccc([N+](=O)[O-])c1 [Compound 34] | 69% |

The remaining lines, values ahead:

| inhibition at 100 µM | Structure (SMILES) |
| --- | --- |
| 74% | O=C(COc1ccc2oc3ccccc3c2c1)Nc1ccc(OC(F)(F)F)cc1 [Compound 11, 2-(Dibenzofuran-2-yloxy)-N-(4-trifluoromethoxy-phenyl) acetamide] |
| 70% | O=C(COc1ccc(-c2ccccc2)cc1)Nc1ccccc1C(F)(F)F [Compound 35] |
| 71% | O=C(COc1ccc(-n2cccc2)cc1)Nc1ccccc1C(F)(F)F [Compound 10] |
| 65% | O=C(COc1ccc2c(c1)C(=O)c1ccccc1-2)Nc1ccc(C(F)(F)F)cc1 [Compound 8, 2-(9-Oxo-9H-fluoren-2-yloxy)-N-(4-trifluoromethyl-phenyl) acetamide] |
| 54% | O=C(COc1ccc(-n2ccnc2)cc1)Nc1ccccc1Cl [Compound 6, N-(2-Chloro-phenyl)-2-(4-imidazol-1-yl-phenoxy)-acetamide] |
| 126% | COc1cc(C(C)=O)ccc1OCC(=O)Nc1ccccc1C(F)(F)F [Compound 13, 2-(4-Acetyl-2-methoxy-phenoxy)-N-(2-trifluoromethyl-phenyl) acetamide] |
| 61% | O=C(COc1ccc2c(c1)C(=O)c1ccccc1-2)Nc1cccc(C(F)(F)F)c1 [Compound 7, 2-(9-Oxo-9H-fluoren-2-yloxy)-N-(3-trifluoromethyl-phenyl) acetamide] |
| 125% | O=C(COc1ccc(-n2ccnc2)cc1)Nc1ccccc1C(F)(F)F [Compound 12, 2-(4-imidazol-1-yl-phenoxy)-N-(2-trifluoromethyl-phenyl) acetamide] |
| 128% | O=C(COc1cccc2cccnc12)Nc1ccccc1C(F)(F)F [Compound 3, 2-(quinolin-8-yloxy)-N-(2-trifluoromethylphenyl)acetamide] |
| 59% | CC(=O)c1ccc(OCC(=O)Nc2ccccc2C(F)(F)F)cc1 [Compound 32] |
